Experimental data from PubChem BioAssay (NCI).
Values joined by “and” are separate entries in the source; they are usually repeats but may differ in a detail not shown here. Equal values may be shown once.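 Grown in 96-well plates, cells were treated for 48 hours with each compound at five concentrations. Insufficient inhibition: endpoint recorded as highest concentration tested. Here, GI50 denotes the concentration required for 50% inhibition of growth. TGI: total growth inhibition.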

Assays:
Test in all cases: growth of human tumour cells (NCI), 48 h
A549 NSCLC = system: A549 NSCLC
HL-60(TB) leukemia = system: HL-60(TB) leukemia
HT29 colon = system: HT29 colon
MOLT-4 leukemia = system: MOLT-4 leukemia
NCI-H460 lung = system: NCI-H460 lung
NCI-H522 lung = system: NCI-H522 lung
OVCAR-8 ovarian = system: OVCAR-8 ovarian
SF-295 CNS = system: SF-295 CNS
BT-549 breast = system: BT-549 breast
MDA-MB-231 breast = system: MDA-MB-231 breast

Row | Structure (SMILES) | TGI (A549 NSCLC) | TGI (HL-60(TB) leukemia) | TGI (HT29 colon) | TGI (MOLT-4 leukemia) | TGI (NCI-H460 lung) | TGI (NCI-H522 lung) | TGI (OVCAR-8 ovarian) | TGI (SF-295 CNS) | TGI (BT-549 breast) | TGI (MDA-MB-231 breast) | GI50 (A549 NSCLC) | GI50 (HL-60(TB) leukemia) | GI50 (HT29 colon) | GI50 (MOLT-4 leukemia) | GI50 (NCI-H522 lung) | GI50 (OVCAR-8 ovarian) | GI50 (SF-295 CNS) | GI50 (BT-549 breast) | GI50 (MDA-MB-231 breast) | GI50 (NCI-H460 lung)
1 | CC(=O)[O-].CC(=O)[O-].O=C(N/N=C/c1cc(Cl)cc(Cl)c1[OH2+])c1ccncc1.[Co+2] | > 100 µM | > 100 µM | > 100 µM | > 100 µM | > 100 µM | > 100 µM | > 100 µM | > 100 µM | – | – | – | – | – | – | – | – | – | – | – | –
2 | CC(=O)c1ccc(Oc2ccc(/C(C)=N\N=C(N)N)cc2)cc1 | 14.5 µM | – | 3.52 µM | 12.2 µM | 10.5 µM | 4.04 µM | 12.7 µM | 6.18 µM | – | – | – | – | – | – | – | – | – | – | – | –
3 | O=c1[nH]c2ccc(CC(=S)N3CCOCC3)cc2s1 | – | > 100 µM | > 100 µM | > 100 µM | > 100 µM | – | > 100 µM | > 100 µM | > 100 µM | > 100 µM | – | – | – | – | – | – | – | – | – | –
4 | CCOP(=O)(/C=C\n1cnc2c(=O)n(C(C)=O)c(N)nc21)OCC | > 100 µM | > 100 µM | > 100 µM | > 100 µM | > 100 µM | – | > 100 µM | > 100 µM | > 100 µM | > 100 µM | – | – | – | – | – | – | – | – | – | –
5 | O=C(O)CSCC(=O)Nc1ccc2cccc3c2c1CC3 | > 100 µM | > 100 µM | > 100 µM | > 100 µM | – | > 100 µM | > 100 µM | > 100 µM | > 100 µM | > 100 µM | – | – | – | – | – | – | – | – | – | –
6 | CC(=O)O[C@H]1CC[C@]2(C)[C@H]3CC[C@@H]4[C@H]5[C@H](C(C)C)CC[C@]5(C(=O)OCC(CO)(CO)N=C(N)N)CC[C@@]4(C)[C@]3(C)CC[C@H]2C1(C)C | 3.28 µM | 4.26 µM | 3.29 µM | 4.83 µM | – | 3.16 µM | 5.45 µM | 3.79 µM | – | – | 1.71 µM | 1.79 µM | 1.75 µM | 2.1 µM | 1.6 µM | 2.32 µM | 1.86 µM | – | – | –
7 | Cc1cc2[nH]c3c(C#N)c(-c4ccccc4)c(N=Nc4cccc(C(F)(F)F)c4)c(=O)n3c2cc1C | > 100 µM | – | – | – | > 100 µM | 69.4 µM | > 100 µM | > 100 µM | > 100 µM | > 100 µM | – | – | – | – | – | – | – | – | – | –
8 | O=C1OCC(C#Cc2ccccc2)=C1Cl | > 100 µM | – | 12.9 µM | 46.1 µM | > 100 µM | 14.7 µM | > 100 µM | > 100 µM | 33.4 µM | 6.39 µM | 5.02 µM | – | 1.05 µM | 14.3 µM | 3.08 µM | 3.45 µM | 21.6 µM | 7.87 µM | 1.19 µM | 7.59 µM
9 | O=P(O)(O)C(CSc1ccccc1)P(=O)(O)O | > 100 µM | > 100 µM | > 100 µM | > 100 µM | > 100 µM | > 100 µM | > 100 µM | > 100 µM | – | – | – | – | – | – | – | – | – | – | – | –
10 | CC(=O)C1=C(N=[N+]=[N-])c2cccc3cccc(c23)C1=O | > 100 µM | – | 39.3 µM | 33.2 µM | 56.3 µM | 29.3 µM | 65.8 µM | 61.7 µM | 46.2 µM | 32 µM | – | – | – | – | – | – | – | – | – | –
11 | COc1cc(OC)c2c(c1OC)OCC(Cc1ccc(O)cc1)C2=O (centres undefined) | > 25 µM | > 25 µM | > 25 µM | > 25 µM | > 25 µM | > 25 µM | > 25 µM | > 25 µM | – | > 25 µM | – | – | – | – | – | – | – | – | – | –
12 | CC[C@@]1(O)C(=O)OCc2c1cc1n(c2=O)Cc2c-1nc1ccccc1c2CC[Si](C)(C)C | 7.61 µM | > 100 µM | > 40.6 µM | – | < 0.0335 µM | 1.55 µM | > 100 µM | 0.0544 µM | > 100 µM | > 53.9 µM | – | – | – | – | – | – | – | – | – | –
13 | COc1cccc2cc(C(N)=O)c(=N)oc12 | > 100 µM | > 100 µM | > 100 µM | > 100 µM | > 100 µM | – | > 100 µM | – | > 100 µM | > 100 µM | – | – | – | – | – | – | – | – | – | –
14 | O=C(NO)c1coc2ccccc2c1=O | > 100 µM | > 100 µM | > 100 µM | > 100 µM | – | > 100 µM | > 100 µM | > 100 µM | – | – | – | – | – | – | – | – | – | – | – | –
15 | CC1(c2ccc(Cl)cc2)CC(c2ccc(Cl)cc2)=C(C#N)C(=C(C#N)C#N)N1 (centres undefined) | 53.3 µM | 78.6 µM | > 100 µM | 60.3 µM | 73.3 µM | – | 34 µM | 32.6 µM | 42.2 µM | 55.8 µM | – | – | – | – | – | – | – | – | – | –
16 | C=C(C=O)c1c2c(nc3ccccc13)C(=O)c1ccccc1C2=O | – | 15.9 µM | – | 0.997 µM | – | 2.09 µM | 2.3 µM | 2.76 µM | 3.57 µM | 3.27 µM | – | – | – | – | – | – | – | – | – | –
17 | C/C(=N\Nc1ccc([N+](=O)[O-])cc1[N+](=O)[O-])c1ccc2ccccc2n1 | > 100 µM | – | > 100 µM | > 100 µM | > 100 µM | 55.7 µM | > 100 µM | > 100 µM | > 100 µM | > 100 µM | – | – | – | – | – | – | – | – | – | –
18 | O=C1CCCc2c1c1c(n2Cc2ccccc2)-c2ccccc2C1=O | 88.2 µM | 58.7 µM | > 100 µM | – | > 100 µM | 33.8 µM | 34 µM | 37.5 µM | 55.7 µM | 42.9 µM | – | – | – | – | – | – | – | – | – | –
19 | c1ccc(N=C2SC(=NNc3ccccc3)SC2=Nc2ccccc2)cc1 | > 100 µM | > 100 µM | > 100 µM | > 100 µM | > 100 µM | > 100 µM | > 100 µM | > 100 µM | – | > 100 µM | – | – | – | – | – | – | – | – | – | –
20 | COc1ccc(/C=C2\CSC/C(=C\c3ccc(OC)c(OC)c3OC)C2=O)c(OC)c1OC | > 100 µM | 72.1 µM | > 100 µM | – | > 100 µM | – | 80.8 µM | 99.6 µM | > 100 µM | > 100 µM | – | – | – | – | – | – | – | – | – | –
21 | COc1cc([C@@H]2c3cc4c(cc3[C@@H](NCCNCCO)[C@H]3COC(=O)[C@H]23)OCO4)cc(OC)c1O | > 100 µM | – | > 29.9 µM | – | 4.49 µM and 3.1 µM | > 22 µM and 6.55 µM | > 22.4 µM and 20.8 µM | > 29 µM and 7.12 µM | 7.03 µM and 5.49 µM | 21.6 µM | – | 0.173 µM and 0.0466 µM | – | – | 2.22 µM and 1.05 µM | – | 1.61 µM and 0.719 µM | – | – | –
22 | CC1C(c2ccc3c(c2)OCO3)c2cc3c(cc2OC1N1CCCC1)OCO3 (centres undefined) | > 100 µM | – | > 100 µM | 69.9 µM | > 100 µM | 80.4 µM | > 100 µM | > 100 µM | – | – | – | – | – | – | – | – | – | – | – | –
